The values that follow come from paper PMC8778187, “A New Oxygen Containing Pyclen-Type Ligand as a Manganese(II) Binder for MRI and ^52Mn PET Applications: Equilibrium, Kinetic, Relaxometric, Structural and Radiochemical Studies” (Molecules, 2022).

Where two headings read alike, the source gives them in different places.

Series [1] is described as follows: 1H relaxometry: r1p and r2p relaxivity of Mn(II) complexes. It is filed as physicochemical. As to conditions: free Mn(II) ion, 1.41 T. The procedure: The relaxivity of Mn(II) complexes is one of the most important parameters that directly correlates with its MRI efficacy. Relaxivity is defined as the longitudinal (r1p) and transverse (r2p) water proton relaxation rate enhancement, provided by 1.0 mM concentration of the paramagnetic species. The relaxivity (r1p and r2p) of the Mn(II) complexes were determined using relaxometers operating at 0.49 T and 1.41 T field strength, in a HEPES buffer (I = 0.15 M NaCl) at different temperatures from the slopes of plots 1/T1,2 vs. (Mn(II)) for 4 concentrations of Mn(II) (data shown in Supporting Information Figures S24 and S25), and they are compared in Table 4.
The ^1H longitudinal (T1) and transverse (T2) relaxation times were measured by using Bruker Minispec MQ-20 and MQ-60 NMR analyzers (Bruker corporation, Billerica, MA, USA). The temperature of the sample holder was set at 25.0 or 37 (±0.2) °C, and controlled with a circulating water bath thermostat. The T1 values of the samples were determined by means of the inversion recovery method (180°–τ–90°), averaging 4–6 data points obtained at 12 different τ delay times, while T2 data were collected by using the Carl–Purcell–Meiboom–Gill (CPMG) spin-echo pulse sequence. Relaxivities were determined by published procedures (from the slopes of the plots of 1/T1,2 vs. (Mn(II)) for 4 concentrations of Mn(II)), in samples of 0.3–0.4 mL volume (data shown in Figures S24 and S25, Supplementary Information). The pH were set by either using a 0.05 M 4-(2-hydroxyethyl)-1-piperazine-ethanesulfonic acid (HEPES) buffer (pH = 7.4) or monitored (pH profiles) using a Metrohm 827 pH lab pH meter and a Metrohm 6.0234.100 combined electrode, in the pH range of 1.75–11.8.

For series [2] the following is noted: cited from earlier work; for relaxivity upon binding to HSA: Mn(II) bound to HSA, 25 °C; for relaxivity of complexes with q = 0: typical values.
The conditions of series [3]: cited from earlier work; for k2: ref 16 ([Mn(3,6-PC2A)]), 12 ([Mn(1,4-DO2A)]), 20 ([Mn(1,7-O2DO2A)]); for t1/2 (h) at pH = 7.4: extrapolated to pH = 7.4; for t1/2 (h) at pH = 7.4 / k1: ref 16 (PC2A complexes), 12, 13, 20; for k1: proton assisted dissociation.
For series [4] the following is noted: cited from earlier work; for r1^298_20 MHz: 20 MHz, 298 K; for ΔH^‡: activation enthalpy of water exchange; for q: hydration number; for τR^298: rotational correlation time; for Δ^2: square of the zero-field splitting energy; for kex^298: water exchange rate.
[5] abbreviates: fixed during the fitting procedure.

Consider `[Mn+2]` [Mn(II) ion], for which the r2p relaxivity in series [1] (25 °C) came to 64.3 mM⁻¹ s⁻¹; in series [1] (37 °C) it was 54.2 mM⁻¹ s⁻¹. The “relaxivity upon binding to HSA” value is 97.2 mM⁻¹ s⁻¹ in series [2] (0.47 T) and 76.35 mM⁻¹ s⁻¹ in series [2] (1.41 T). For the same molecule, in series [2] (Mn(II) ion), the “relaxivity in pure aqueous solution” value is 7.92 mM⁻¹ s⁻¹.
Turning to `O.O=C([O-])CN1CCNCc2cccc(n2)CN(CC(=O)[O-])CC1.[Mn+2]` [[Mn(3,6-PC2A)]], in series [3] (T = 25 °C, I = 0.15 M NaCl), the k2 is 1.5 × 10^5 M^−2s^−1 and the k1 is 70 M⁻¹ s⁻¹. The “t1/2 (h) at pH = 7.4” value in series [3] is 63.2 h. In addition, the k3 in series [3] (metal assisted dissociation, T = 25 °C, I = 0.15 M NaCl) was 0.026 M⁻¹ s⁻¹. Moreover, the “KMnL x H” value in series [3] (protonation constant of the complex from kinetic fit, T = 25 °C, I = 0.15 M NaCl) is reported as 1.15 × 10^3. Further, in series [3] (stability constant of dinuclear intermediate, T = 25 °C, I = 0.15 M NaCl, unit assumed), the KML x Cu is 16 M⁻¹.
`O=C([O-])CN1CCNCCN(CC(=O)[O-])CCN(CC(=O)[O-])CC1.[Mn+2]` [[Mn(DO3A)]^−]: in series [2], the “relaxivity of complexes with q = 0” value is 1.4 to 1.6 mM⁻¹ s⁻¹.
`O=C([O-])CN1CCN(CC(=O)[O-])Cc2cccc(n2)CN(CC(=O)[O-])CC1.[Mn+2]` [[Mn(PCTA)]^−]: the “relaxivity of complexes with q = 0” value in series [2] was 1.4 to 1.6 mM⁻¹ s⁻¹.
With `CN(C)C(=O)CN1CCNCCNCCN(CC(=O)N(C)C)CC1.O.[Mn+2]` [[Mn(1,4-DO2AM^Me2)]^2+], in series [4], the “r1^298_20 MHz” value is 2.5 mM⁻¹ s⁻¹, the “ΔH^‡” value is recorded as 36.9 kJmol^−1, the “τR^298” value is listed as 53 ps and the “Δ^2” value is reported as 510 10^18s^−2. Also, in series [4], the “kex^298” value is recorded as 11.5 10^7s^−1. Also, the ER in series [4] (activation energy of rotation) is reported as 19.1 kJmol^−1. Moreover, the “τv^298” value in series [4] (correlation time of ZFS modulation) is recorded as 5.5 ps. Moreover, the q in series [4] (setting [5]) is given as 0.87. Also, the “t1/2 (h) at pH = 7.4” value in series [3] is 556 h. In addition, in series [3] (T = 25 °C, I = 0.15 M NaCl), the k1 was 8.7 M⁻¹ s⁻¹.
On to `O.O=C([O-])CN1CCOCCN(CC(=O)[O-])CCOCC1.[Mn+2]` [[Mn(1,7-O2DO2A)]], for which, in series [4], the “r1^298_20 MHz” value was 2.86 mM⁻¹ s⁻¹, the “ΔH^‡” value was 29.7 kJmol^−1, the “τR^298” value was 46.7 ps and the “Δ^2” value was 111 10^18s^−2. The “kex^298” value in series [4] is on record as 5.3 10^7s^−1. Moreover, the “ΔS^‡” value in series [4] (activation entropy of water exchange) is on record as 2.8 JK^−1mol^−1. Moreover, in series [4] (setting [5]), the ER was 20 ^e kJmol^−1 and the q is reported as 1. Further, in series [3] (T = 25 °C, I = 0.15 M NaCl), the k2 is listed as 3.0 × 10^6 M^−2s^−1 and the k1 was 85 M⁻¹ s⁻¹. The “t1/2 (h) at pH = 7.4” value in series [3] was 56.8 h.
